Literature values as cited in US11389520B2, “Modified tetra-acylated neisserial LPS” (priority 2016, dated 2022).

Target: human TLR4/MD-2 complex (Homo sapiens, UniProt O00206+Q9Y6Y9)
Sequence (O00206 24-839): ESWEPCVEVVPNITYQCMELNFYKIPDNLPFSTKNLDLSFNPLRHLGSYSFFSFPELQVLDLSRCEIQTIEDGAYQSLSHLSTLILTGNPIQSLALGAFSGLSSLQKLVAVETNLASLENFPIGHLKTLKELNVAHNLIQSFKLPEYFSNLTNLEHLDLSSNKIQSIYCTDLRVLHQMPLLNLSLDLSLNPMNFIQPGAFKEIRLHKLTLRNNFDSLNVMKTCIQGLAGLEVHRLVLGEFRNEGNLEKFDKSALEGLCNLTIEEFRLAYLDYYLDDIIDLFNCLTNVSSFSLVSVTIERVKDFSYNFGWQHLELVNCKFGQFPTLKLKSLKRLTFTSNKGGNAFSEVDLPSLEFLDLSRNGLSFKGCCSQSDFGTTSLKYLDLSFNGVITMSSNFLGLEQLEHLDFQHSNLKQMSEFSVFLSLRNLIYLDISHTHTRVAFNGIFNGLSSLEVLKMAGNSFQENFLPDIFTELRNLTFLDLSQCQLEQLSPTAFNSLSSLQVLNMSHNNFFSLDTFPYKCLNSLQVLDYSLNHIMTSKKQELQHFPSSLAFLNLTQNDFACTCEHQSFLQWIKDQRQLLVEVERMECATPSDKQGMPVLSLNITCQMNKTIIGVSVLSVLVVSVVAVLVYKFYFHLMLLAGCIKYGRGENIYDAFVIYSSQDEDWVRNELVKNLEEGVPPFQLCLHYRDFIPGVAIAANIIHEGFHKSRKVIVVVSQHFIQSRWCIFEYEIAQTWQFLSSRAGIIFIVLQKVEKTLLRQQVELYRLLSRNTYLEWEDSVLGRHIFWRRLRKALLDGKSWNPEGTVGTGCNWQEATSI
Sequence (Q9Y6Y9 17-160 limits assumed): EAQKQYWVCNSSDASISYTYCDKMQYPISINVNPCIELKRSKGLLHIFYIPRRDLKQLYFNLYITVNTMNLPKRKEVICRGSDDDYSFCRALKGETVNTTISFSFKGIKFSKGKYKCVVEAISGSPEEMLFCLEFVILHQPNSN

Structure (SMILES): CCCCCCCCCCC[C@@H](O)CC(=O)N[C@H]1[C@H](OC[C@H]2O[C@H](OP(=O)(O)O)[C@H](NC(=O)C[C@H](O)CCCCCCCCCCC)[C@@H](OC(=O)C[C@H](O)CCCCCCCCCCC)[C@@H]2O)O[C@H](CO)[C@@H](OP(=O)(O)O)[C@@H]1OC(=O)C[C@H](O)CCCCCCCCCCC [lipid IVa]
- Action on the human TLR4/MD-2 complex: antagonist
